We go through 1 compound from patent US20240228572A1 (i2o Therapeutics, Inc., priority 2020, published 2024).

Series [1] addresses serum albumin (Macaca fascicularis, UniProt A2V9Z4). Put plainly: Fraction unbound (fu) in plasma by surface plasmon resonance, monkey. Type of series: in vitro ADME. The settings on record: SPR binding to serum albumin. The method, then: (§1) Conventional methods of measuring plasma protein binding, such as equilibrium dialysis, ultrafiltration and ultracentrifugation, are not reliable with peptides because of their tendency to adsorb to the surface of plastic tubing, dialysis membranes and molecular weight cut-off filters. As a result, the extent to which acylated peptides bind to serum albumin was evaluated using surface plasmon resonance (SPR).

Series [2] has as its target serum albumin (Rattus norvegicus, UniProt P02770). The experiment in a line: Fraction unbound (fu) in plasma by surface plasmon resonance, rat. The conditions noted are these: SPR binding to serum albumin. Type of series: in vitro ADME. The protocol:
as §1

Series [3] can be described thus: Intravenous infusion pharmacokinetics in rats. The settings on record: rat, plasma, IV infusion 0.033 mg/kg, male Sprague-Dawley rats. Type of series: in vivo. The method, then:
Peptides were dissolved in 0.05% Tween-20 in phosphate buffered saline and administered as a 1-hour intravenous infusion to non-fasted male Sprague-Dawley rats (n=3 per group) via femoral vein cannula at a final dose of 0.033 mg/kg. Formulations were administered at a rate of 1.67 mL/kg/h. Blood samples (approximately 250 μL) were collected for pharmacokinetic analysis via a jugular vein cannula at 0.25, 0.5, 0.75, 1, 1.17, 1.33, 1.5, 2, 4, 8, 24, 48, 72, and 96 hours post-start of infusion into microtainer tubes containing K2EDTA as anticoagulant and 25 μL of a protease inhibitor cocktail. Plasma was prepared by centrifugation and stored at −80° C. until analysis.
A 70 μL aliquot of each plasma sample was placed into to a 96-well plate. To each well was added 210 μL of 0.1% TFA in 2:1 ethanol:acetonitrile containing an appropriate internal standard. Plates were vortex mixed for 10 min at 1300 rpm, and then centrifuged for 10 min at 500× g. Supernatants (210 μL) were placed into a clean 96-well plate and evaporated under a nitrogen stream at 45° C. Residues were reconstituted in 80 μL of 20% acetonitrile (aq) containing 0.1% formic acid.
All calibration standards were prepared in control rat plasma containing K2EDTA and protease inhibitor cocktail.
Samples and standards were analyzed by electrospray ionization (ESI) UPLC-MS/MS using a system consisting of a CTC HTS PAL auto-injector (Leap, Carrboro, NC), an Agilent Infinity 1290 system with column oven (Palo Alto, CA), a Valco switching valve (Houston, TX), and a Sciex TripleTOF® 5600 mass spectrometer (Framingham, MA). Samples were injected onto a 2.1×50 mm reverse phase C18 analytical column, typically a Waters CORTECS UPLC C18+, 1.6 μm (Waters Corporation, Milford, MA) or similar. […] Initial conditions consisted of 95% A and 5% B. The organic component was increased to 95% B over a period of 3-4 minutes, depending on the peptide. Typical flow rates were 550 μL/min. The column temperature was held constant at 45° C. Peptides were quantified by monitoring one or more product ions produced from a multiply charged parent ion.

The nature of series [4]: Stability in subcutaneous (SC) tissue homogenates, rat. The class given is in vitro ADME. The settings on record: subcutaneous (SC) tissue homogenate, pH 7.4, read-out: (H)SC tissue stability t½ (converted). The method, then:
In vitro incubations in subcutaneous (SC) tissue homogenates were used to characterize the ability of peptides to resist pre-systemic degradation by proteases and peptidases after SC administration. In vivo nonclinical studies have shown that peptidase activity in the SC space can limit the bioavailability of a peptide after SC administration. Peptides with high SC bioavailability are stable in this assay, while peptides with low SC bioavailability are unstable in this assay.
Human SC tissue was homogenized in cold 25 mM HEPES buffer (pH 7.4, 10-fold volume based on sample weight), and then filtered through a double layer of cheesecloth. The filtrates were aliquoted, flash frozen on a methanol/dry ice bath and stored at −80° C. The protein concentration of each pooled batch was determined using the BCA protein assay. Thawed stocks of human SC tissue homogenates were diluted to 1.0 mg protein/mL in 25 mM HEPES buffer (pH 7.4) and aliquoted into a 96-well plate. The diluted SC homogenates were pre-warmed for 10 minutes at 37° C. Reactions were initiated by the addition of test peptide (10 mcM final concentration) also dissolved in 25 mM HEPES buffer (pH 7.4). Reactions were maintained at 37° C. in a shaking water bath. […] Samples were analyzed by UPLC-MS/MS.

*1 amine or outer side, *2 acyl side, *3 side chain or, on linkers, in order; H or OH if unused. Where a SMILES comes first, the peptide text is derived from it. Side-chain parts run from the residue outwards. [ ]: non-standard residue; d: D form. The star is where a group is joined. C20 diacid = O=C(O)CCCCCCCCCCCCCCCCCCC(=O)*; γGlu = O=C(O)[C@H](CCC(=O)[*:2])N[*:1]; AEEA = NCCOCCOCC(=O)O; Aib = CC(C)(N)C(=O)O

Chain of serum albumin (Macaca fascicularis, UniProt A2V9Z4) (A2V9Z4 25-608): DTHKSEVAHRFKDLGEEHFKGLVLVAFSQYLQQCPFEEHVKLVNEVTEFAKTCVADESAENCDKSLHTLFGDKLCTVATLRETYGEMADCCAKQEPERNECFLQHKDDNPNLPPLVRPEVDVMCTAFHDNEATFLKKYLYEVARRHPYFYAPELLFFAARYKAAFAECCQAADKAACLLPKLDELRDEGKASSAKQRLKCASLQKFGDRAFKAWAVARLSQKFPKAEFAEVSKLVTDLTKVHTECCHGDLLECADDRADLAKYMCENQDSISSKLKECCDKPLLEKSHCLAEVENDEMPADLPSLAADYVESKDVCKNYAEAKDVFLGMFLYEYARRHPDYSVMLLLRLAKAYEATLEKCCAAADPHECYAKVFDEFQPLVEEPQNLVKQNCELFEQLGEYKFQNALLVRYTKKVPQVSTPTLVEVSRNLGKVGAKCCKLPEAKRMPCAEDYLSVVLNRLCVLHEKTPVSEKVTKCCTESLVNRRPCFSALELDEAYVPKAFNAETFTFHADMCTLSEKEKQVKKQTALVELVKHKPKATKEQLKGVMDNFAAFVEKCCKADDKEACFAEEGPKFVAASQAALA
Chain of serum albumin (Rattus norvegicus, UniProt P02770) (P02770 25-608): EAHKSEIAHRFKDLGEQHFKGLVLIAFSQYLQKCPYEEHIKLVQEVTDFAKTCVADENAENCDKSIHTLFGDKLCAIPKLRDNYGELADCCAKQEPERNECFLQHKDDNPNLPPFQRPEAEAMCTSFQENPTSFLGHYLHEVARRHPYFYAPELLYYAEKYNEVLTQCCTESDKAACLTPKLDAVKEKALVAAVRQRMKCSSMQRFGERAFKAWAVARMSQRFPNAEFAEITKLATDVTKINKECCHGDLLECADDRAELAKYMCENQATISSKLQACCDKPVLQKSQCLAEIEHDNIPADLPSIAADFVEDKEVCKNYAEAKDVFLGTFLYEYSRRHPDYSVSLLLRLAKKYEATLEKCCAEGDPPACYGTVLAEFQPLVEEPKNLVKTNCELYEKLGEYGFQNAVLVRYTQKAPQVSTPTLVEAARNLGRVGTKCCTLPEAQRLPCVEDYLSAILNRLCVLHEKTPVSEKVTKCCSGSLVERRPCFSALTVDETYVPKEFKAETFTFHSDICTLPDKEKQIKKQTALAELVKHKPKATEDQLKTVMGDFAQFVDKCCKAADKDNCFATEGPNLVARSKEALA

`CC(C)C[C@H](NC(=O)[C@H](Cc1ccc(O)cc1)NC(=O)[C@H](CCCCN)NC(=O)[C@H](CO)NC(=O)[C@H](Cc1ccc(O)cc1)NC(=O)[C@H](CC(=O)O)NC(=O)[C@H](CO)NC(=O)[C@@H](NC(=O)[C@H](Cc1ccccc1)NC(=O)[C@@H](NC(=O)CNC(=O)[C@H](Cc1c[nH]cn1)NC(=O)[C@H](CO)NC(=O)[C@@H](N)Cc1ccc(O)cc1)[C@@H](C)O)[C@@H](C)O)C(=O)N[C@@H](CC(=O)O)C(=O)NC(C)(C)C(=O)N[C@@H](CCCCN)C(=O)N[C@@H](Cc1ccc(O)cc1)C(=O)N[C@@H](C)C(=O)N[C@@H](CCC(N)=O)C(=O)N[C@@H](CCCCNC(=O)CC[C@H](NC(=O)CC[C@H](NC(=O)COCCOCCNC(=O)CCCCCCCCCCCCCCCCCCC(=O)O)C(=O)O)C(=O)O)C(=O)N[C@@H](Cc1ccccc1)C(=O)N[C@H](C(=O)NC(C)(C)C(=O)N[C@@H](Cc1c[nH]c2ccccc12)C(=O)N[C@@H](CC(C)C)C(=O)N[C@@H](CCC(=O)O)C(=O)N[C@@H](CC(=O)O)C(=O)N[C@@H](CCC(=O)O)C(=O)N1CCC[C@H]1C(=O)N[C@@H](CO)C(=O)N[C@@H](CO)C(=O)NCC(=O)N[C@@H](C)C(=O)N1CCC[C@H]1C(=O)N1CCC[C@H]1C(=O)N1CCC[C@H]1C(=O)N[C@@H](CO)C(=O)O)C(C)C` [Compound A6] (H-YSHGTFTSDYSKYLD[Aib]KYAQK([γGlu-γGlu-AEEA-C20 diacid])FV[Aib]WLEDEPSSGAPPPS-OH; N-terminus assumed): the fraction unbound at serum albumin [1] amounted to 0.0048; on serum albumin [2], 0.0083. In series [3] (1-hour), this compound returned a clearance of 4.97 mL/h/kg. For the same compound, the half-life in series [3] was 13 h. Also, the Vd in series [3] (read-out: Vss) was found to be 0.0867 L/kg. The half-life at 10 mcM in series [4] was 9 h.
